Measured values reported in ChEMBL document CHEMBL5316344, “Homologation of the Alkyl Side Chain of Antimitotic Phenyl 4-(2-Oxo-3-alkylimidazolidin-1-yl)benzenesulfonate Prodrugs Selectively Targeting CYP1A1-Expressing Breast Cancers Improves Their Stability in Rodent Liver Microsomes” (J Med Chem, 2023).
Activity calls are given as the source filed them. The rule behind the calls is not given here.

How the values were obtained:
[1] = tested on: MCF7; assay: Antiproliferative activity against human MCF7 cells expressing CYP1A1 assessed as cell growth inhibition incubated for 48 hrs by sulforhodamine B assay; type: functional, cell-based; settings: MCF7, 48 h
[2] = tested on: HT-29; assay: Antiproliferative activity against human HT-29 cells assessed as cell growth inhibition incubated for 48 hrs by sulforhodamine B assay; type: functional, cell-based; settings: HT-29, 48 h
[3] = tested on: M21; assay: Antiproliferative activity against human M21 cells assessed as cell growth inhibition incubated for 48 hrs by sulforhodamine B assay; type: functional, cell-based; settings: M21, 48 h
[4] = Selectivity ratio, ratio of IC50 for antiproliferative activity against human HT-29 cells to IC50 for antiproliferative activity against human MCF7 cells expressing CYP1A1; type: functional
[5] = Selectivity ratio, ratio of IC50 for antiproliferative activity against human M21 cells to IC50 for antiproliferative activity against human MCF7 cells expressing CYP1A1; type: functional
[6] = Stability in human liver microsomes assessed as half life incubated for 60 mins by HPLC analysis; type: ADME, Microsome
[7] = Stability in mouse liver microsomes assessed as half life incubated for 60 mins by HPLC analysis; type: ADME, Microsome
[8] = Stability in rat liver microsomes assessed as half life incubated for 60 mins by HPLC analysis; type: ADME, Microsome
[9] = Stability in human liver microsomes assessed as intrinsic clearance incubated for 60 mins by HPLC analysis; type: ADME, Microsome; settings: read-out: CLH
[10] = Stability in mouse liver microsomes assessed as intrinsic clearance incubated for 60 mins by HPLC analysis; type: ADME, Microsome; settings: read-out: CLH
[11] = Stability in rat liver microsomes assessed as intrinsic clearance incubated for 60 mins by HPLC analysis; type: ADME, Microsome; settings: read-out: CLH
[12] = target: T1, Cytochrome P450 1A1 (Homo sapiens, UniProt P04798); assay: Binding affinity to human CYP1A1 assessed as inhibition of conversion of 7-ethoicyresorufin into fluorescent resorufin by measuring inhibition constant preincubated for 5 mins followed by […] addition measured every minute for 15 mins by EROD assay; type: ADME
T1 sequence (P04798 whole entry): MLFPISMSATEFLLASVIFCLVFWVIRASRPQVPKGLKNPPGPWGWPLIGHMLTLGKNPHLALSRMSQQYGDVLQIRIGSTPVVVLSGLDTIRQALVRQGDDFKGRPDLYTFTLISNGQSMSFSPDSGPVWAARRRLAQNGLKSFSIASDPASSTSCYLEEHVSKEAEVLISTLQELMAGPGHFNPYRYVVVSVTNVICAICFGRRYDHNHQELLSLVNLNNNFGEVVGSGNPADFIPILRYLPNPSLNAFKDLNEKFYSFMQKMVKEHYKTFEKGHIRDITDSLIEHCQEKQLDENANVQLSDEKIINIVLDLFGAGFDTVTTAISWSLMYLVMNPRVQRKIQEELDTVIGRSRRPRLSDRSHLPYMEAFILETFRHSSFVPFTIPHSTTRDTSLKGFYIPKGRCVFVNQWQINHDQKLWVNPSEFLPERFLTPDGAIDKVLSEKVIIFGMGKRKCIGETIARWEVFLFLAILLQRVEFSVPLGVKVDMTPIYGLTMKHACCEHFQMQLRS

[13] = tested on: HT-1080; assay: Antiproliferative activity against human HT-1080 cells expressing CYP1A1 assessed as cell growth inhibition incubated for 48 hrs by sulforhodamine B assay; type: functional, cell-based; settings: HT-1080, 48 h
[14] = tested on: HT-1080; assay: Antiproliferative activity against human HT-1080 cells transfected with empty vector assessed as cell growth inhibition incubated for 48 hrs by sulforhodamine B assay; type: functional, cell-based; settings: HT-1080, 48 h
[15] = tested on: HT-1080; assay: Antiproliferative activity against human HT-1080 cells assessed as cell growth inhibition incubated for 48 hrs by sulforhodamine B assay; type: functional, cell-based; settings: HT-1080, 48 h
[16] = Selectivity ratio, ratio of IC50 for antiproliferative activity against human HT-1080 cells transfected with empty vector to IC50 for antiproliferative activity against human HT-1080 cells expressing CYP1A1; type: functional
[17] = Selectivity ratio, ratio of IC50 for antiproliferative activity against human HT-1080 cells to IC50 for antiproliferative activity against human HT-1080 cells expressing CYP1A1; type: functional
[18] = tested on: MDA-MB-231; assay: Antiproliferative activity against ER/PR/HER2-negative human MDA-MB-231 cells assessed as cell growth inhibition incubated for 72 hrs by sulforhodamine B assay; type: functional, cell-based; settings: MDA-MB-231, 72 h
[19] = tested on: MDA-MB-468; assay: Antiproliferative activity against ER/PR/HER2-negative human MDA-MB-468 cells assessed as cell growth inhibition incubated for 72 hrs by sulforhodamine B assay; type: functional, cell-based; settings: MDA-MB-468, 72 h
[20] = tested on: T47D; assay: Antiproliferative activity against ER/PR-positive HER2-negative human T47D cells assessed as cell growth inhibition incubated for 72 hrs by sulforhodamine B assay; type: functional, cell-based
[21] = tested on: SK-BR-3; assay: Antiproliferative activity against ER/PR-negative HER2-positive human SK-BR-3 cells assessed as cell growth inhibition incubated for 72 hrs by sulforhodamine B assay; type: functional, cell-based; settings: SK-BR-3, 72 h
[22] = tested on: MCF7; assay: Antiproliferative activity against […] human MCF7 cells assessed as cell growth inhibition incubated for 72 hrs by sulforhodamine B assay; type: functional, cell-based; settings: MCF7, 72 h
[23] = Selectivity ratio, ratio of IC50 for antiproliferative activity against ER/PR/HER2-negative human MDA-MB-231 cells to IC50 for antiproliferative activity against ER/PR/HER2-negative human MDA-MB-468 cells; type: functional
[24] = Selectivity ratio, ratio of IC50 for antiproliferative activity against ER/PR/HER2-negative human MDA-MB-231 cells to IC50 for antiproliferative activity against ER/PR-positive HER2-negative human T47D cells; type: functional
[25] = Selectivity ratio, ratio of IC50 for antiproliferative activity against ER/PR/HER2-negative human MDA-MB-231 cells to IC50 for antiproliferative activity against ER/PR-negative HER2-positive human SK-BR-3 cells; type: functional
[26] = Selectivity ratio, ratio of IC50 for antiproliferative activity against ER/PR/HER2-negative human MDA-MB-231 cells to IC50 for antiproliferative activity against […] human MCF7 cells; type: functional
[27] = tested on: MCF7; assay: Induction of cell cycle arrest in human MCF7 cells expressing CYP1A1 assessed as accumulation of cells at G2/M phase at 1250 nM incubated for 48 hrs by DAPI staining based flow cytometric analysis (reference value: 16+/-2 %); type: functional
[28] = tested on: MCF7; assay: Induction of cell cycle arrest in human MCF7 cells expressing CYP1A1 assessed as accumulation of cells at S phase at 1250 nM incubated for 48 hrs by DAPI staining based flow cytometric analysis (reference value: 11+/-1 %); type: functional
[29] = tested on: MCF7; assay: Induction of cell cycle arrest in human MCF7 cells expressing CYP1A1 assessed as accumulation of cells at G0/G1 phase at 1250 nM incubated for 48 hrs by DAPI staining based flow cytometric analysis (reference value: 74+/-2 %); type: functional
[30] = target: Tubulin (Homo sapiens) (UniProt P68371+Q9H4B7+P0DPH7+P68366+Q13509+Q71U36+P04350+Q3ZCM7+P07437+P68363+Q9BQE3+Q6PEY2+Q13885+Q9BVA1+Q9BUF5); assay: Disruption of microtubules in human MCF7 cells expressing CYP1A1 assessed as cytoskeleton disruption at 1250 nM measured after 48 hrs by DAPI staining based fluorescence microscopic analysis; type: cell-based
[31] = tested on: HT-1080; assay: Antitumor activity against human HT-1080 cells xenografted in chick embryo assessed as reduction in tumor wet weight at 1 ug, iv incubated for 17 days by CAM assay; type: functional; design: scale not given: the % may be the effect or the level left; settings: dose 1 µg, time 17 day
[32] = tested on: HT-1080; assay: Antitumor activity against human HT-1080 cells transfected with empty vector xenografted in chick embryo assessed as reduction in tumor wet weight at 1 ug, iv incubated for 17 days by CAM assay; type: functional; design: scale not given: the % may be the effect or the level left; settings: dose 1 µg, time 17 day
[33] = tested on: HT-1080; assay: Antitumor activity against human HT-1080 cells expressing CYP1A1 xenografted in chick embryo assessed as reduction in tumor wet weight at 1 ug, iv incubated for 17 days by CAM assay; type: functional; design: scale not given: the % may be the effect or the level left; settings: dose 1 µg, time 17 day
[34] = Toxicity in chick embryo xenografted with human […] cells assessed as mortality at 1 ug, iv incubated for 17 days; type: organism-based, Gallus gallus; settings: chicken, in vivo, 408 h, dose 1 µg, time 17 day
[35] = Toxicity in chick embryo xenografted with human […] cells transfected with empty vector assessed as mortality at 1 ug, iv incubated for 17 days; type: organism-based, Gallus gallus; settings: chicken, in vivo, 408 h, dose 1 µg, time 17 day
[36] = Toxicity in chick embryo xenografted with human […] cells expressing CYP1A1 assessed as mortality at 1 ug, iv incubated for 17 days; type: organism-based, Gallus gallus; settings: chicken, in vivo, 408 h, dose 1 µg, time 17 day
[37] = target: T1, Cytochrome P450 1A1; assay: Prodrug conversion assessed as human CYP1A1-mediated CEU-699 formation incubated for 15 mins in presence of NADPH by HPLC analysis; type: ADME; settings: recombinant enzyme, 0.25 h
[38] = tested on: MCF7; assay: Induction of cell cycle arrest in human MCF7 cells expressing CYP1A1 assessed as accumulation of cells at G2/M phase at 15 nM incubated for 48 hrs by DAPI staining based flow cytometric analysis (reference value: 16+/-2 %); type: functional
[39] = tested on: MCF7; assay: Induction of cell cycle arrest in human MCF7 cells expressing CYP1A1 assessed as accumulation of cells at S phase at 15 nM incubated for 48 hrs by DAPI staining based flow cytometric analysis (reference value: 11+/-1 %); type: functional
[40] = tested on: MCF7; assay: Induction of cell cycle arrest in human MCF7 cells expressing CYP1A1 assessed as accumulation of cells at G0/G1 phase at 15 nM incubated for 48 hrs by DAPI staining based flow cytometric analysis (reference value: 74+/-2 %); type: functional

CCCCCN1CCN(c2ccc(S(=O)(=O)Oc3cc(OC)cc(OC)c3)cc2)C1=O
IC50 [1]: 600 nM | IC50 [2]: > 12500 nM | IC50 [3]: > 12500 nM | Ratio IC50 [4]: >21 | Ratio IC50 [5]: >21 | half-life [6]: 1.17 h | half-life [7]: 0.733 h | half-life [8]: 1.78 h | microsomal CLint [9]: 20 µL/min/mg | microsomal CLint [10]: 32 µL/min/mg | microsomal CLint [11]: 13 µL/min/mg | Ki [12]: 230 nM | IC50 [13]: 500 nM | IC50 [14]: 8800 nM | IC50 [15]: 6800 nM | Ratio IC50 [16]: 18 | Ratio IC50 [17]: 14 | IC50 [18]: > 12500 nM | IC50 [19]: 210 nM | IC50 [20]: 1100 nM | IC50 [21]: 79 nM | IC50 [22]: 43 nM | Ratio IC50 [23]: >60 | Ratio IC50 [24]: >11 | Ratio IC50 [25]: >160 | Ratio IC50 [26]: >290 | Activity [27]: 57% | Activity [28]: 11% | Activity [29]: 32% | Activity [30]: Active | Activity [31]: 86% | Activity [32]: 87% | Activity [33]: 71% | Activity [34]: Non-Toxic | Activity [35]: Non-Toxic | Activity [36]: Non-Toxic | Drug metabolism [37]: Metabolite_Detected

COc1ccc(/C=C\c2cc(OC)c(OC)c(OC)c2)cc1O [COMBRETASTATIN A4]
IC50 [1]: 9 nM | IC50 [2]: 6 nM | IC50 [3]: 0.4 nM | Ratio IC50 [4]: 0.66 | Ratio IC50 [5]: 0.044 | IC50 [13]: 2.1 nM | IC50 [14]: 1.3 nM | IC50 [15]: 6 nM | Ratio IC50 [16]: 0.62 | Ratio IC50 [17]: 2.9 | Activity [38]: 72% | Activity [39]: 8% | Activity [40]: 20.1%
